Drawing on BindingDB's records for patent US11225492 (Hangzhou Innogate Pharma Co., Ltd., 2022), this text covers IC50 for three compounds.

For the assay, the target named is Cyclin-dependent kinase 6 (Homo sapiens, UniProt Q00534). Put plainly: Kinase Assay. Here is the method: CDK2/CycA2 and CDK6/cycD3 were assayed under buffer conditions in the presence of 50 mM HEPES (pH 7.5), 10 mM MgCl2, 0.0015% Brij-35, and 2 mM dithiothreitol, CDK4/CycD3 with buffer condition of 20 mM HEPES (pH 7.5), 10 mM MgCl2, 0.01% Triton X-100, and 2 mM dithiothreitol. Prepare compounds to 50× of the final desired highest inhibitor concentration by 100% DMSO and serial dilution in 3-fold for total of 10 concentrations. […] After assay for 60 min, 180 min, 60 min respectively at 28° C., reactions were terminated with stop solution (50 mM EDTA, 0.015% Brij-35, 0.2% Coating Reagent #3 and 100 mM HEPES (pH 7.5)). Collect conversion on Caliper EZ Reader.

Bounds are passed on as bounds.

Sequence of Cyclin-dependent kinase 6 (Q00534 whole entry): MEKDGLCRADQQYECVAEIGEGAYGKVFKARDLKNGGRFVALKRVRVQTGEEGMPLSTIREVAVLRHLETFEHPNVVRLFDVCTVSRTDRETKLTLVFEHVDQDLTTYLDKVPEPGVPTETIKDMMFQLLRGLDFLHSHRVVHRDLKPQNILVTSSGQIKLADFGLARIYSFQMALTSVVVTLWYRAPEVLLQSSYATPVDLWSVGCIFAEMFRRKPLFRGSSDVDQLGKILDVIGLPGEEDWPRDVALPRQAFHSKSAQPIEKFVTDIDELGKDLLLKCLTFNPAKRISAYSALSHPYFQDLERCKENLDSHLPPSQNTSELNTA

For orientation: IC50 means the midpoint of a concentration-inhibition curve. Low values mean greater potency, high ones weaker potency. Regarding `CC(=O)c1c(C)c2cnc(Nc3ccc4c(c3)OCC3CNCCN43)nc2n(C2CCCC2)c1=O` (racemic) [US11225492, Compound 7], the IC50 was < 25 nM.

For the compound `CC(=O)c1c(C)c2cnc(Nc3ccc4c(c3)OC[C@H]3CNCCN43)nc2n(C2CCCC2)c1=O` [US11225492, Compound 7R], the IC50 is < 25 nM.

Consider `CC(=O)c1c(C)c2cnc(Nc3ccc4c(c3)OC[C@@H]3CNCCN43)nc2n(C2CCCC2)c1=O` [US11225492, Compound 7S], for which the IC50 is < 25 nM.
